The text below walks through data of patent publication US10961215B2, “N-aryl and N-heteroaryl piperidine derivatives as liver X receptor beta agonists, compositions, and their use” (Merck Sharp & Dohme Corp., priority 2016, dated 2021).

In assay [1] the target is T1, GST tagged LXRbeta LBD (ligand binding domain) (Homo sapiens, UniProt P55055).
T1 construct: purchased Invitrogen pv4658.pps
T1 sequence (P55055 222-460 limits assumed): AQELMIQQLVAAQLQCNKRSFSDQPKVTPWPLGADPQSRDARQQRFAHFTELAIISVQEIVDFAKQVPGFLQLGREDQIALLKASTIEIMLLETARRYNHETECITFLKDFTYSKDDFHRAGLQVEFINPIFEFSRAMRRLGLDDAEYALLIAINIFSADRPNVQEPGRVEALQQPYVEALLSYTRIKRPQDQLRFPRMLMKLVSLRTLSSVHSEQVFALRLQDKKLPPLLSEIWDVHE
Description: LanthaScreen TR-FRET Liver X Receptor Coactivator Assay, LXR beta-LBD (co-activator recruitment; IP and % Emax relative to T0901317). The class given is biochemical. To be noted: for EC50: Inflection Point of co-activator recruitment, LXR beta-LBD, TR-FRET; for Emax: read-out: LXR beta actiivty at max dose (%). The method, boiled down:
(§1)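 TR-FRET coactivator recruitment; LBD + cpd, then fluorescein coactivator peptide/Tb anti-GST Ab mix; RT incubation; IP and Emax vs T0901317.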

Assay [2] has as its target T2, GST tagged LXRalpha LBD (ligand binding domain) (Homo sapiens, UniProt Q13133).
T2 construct: purchased Invitrogen pv4655
T2 sequence (Q13133 209-447 limits assumed): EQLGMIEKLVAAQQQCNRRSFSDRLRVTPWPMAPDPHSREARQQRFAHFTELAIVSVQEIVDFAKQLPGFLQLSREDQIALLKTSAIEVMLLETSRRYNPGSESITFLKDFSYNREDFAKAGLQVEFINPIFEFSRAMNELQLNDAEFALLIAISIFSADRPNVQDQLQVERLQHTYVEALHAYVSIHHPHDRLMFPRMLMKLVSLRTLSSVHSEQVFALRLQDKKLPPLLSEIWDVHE
Description: LanthaScreen TR-FRET Liver X Receptor Coactivator Assay, LXR alpha-LBD (co-activator recruitment; IP and % Emax relative to T0901317). To be noted: for EC50 / LXR alpha IP (nM): Inflection Point of co-activator recruitment, LXR alpha-LBD, TR-FRET; for Emax: read-out: LXR alpha actiivty at max dose (%). The class given is biochemical. The method, boiled down: as §1

Where [3] appears, read: efficacy at max dose in relation to reference T0901317, LXR beta-LBD.
The mark [4] stands for this setting: efficacy at max dose in relation to reference T0901317, LXR alpha-LBD.

Take `CN(C)C(=O)c1ccc(N2CCC(CCCNC(=O)[C@](O)(c3cccc(O)c3)C(F)(F)F)CC2)nc1Cl` [Example 5-22, (R)-2-chloro-N,N-dimethyl-6-(4-(3-(3,3,3-trifluoro-2-hydroxy-2-(3-hydroxyphenyl)propanamido)propyl)piperidin-1-yl)nicotinamide]: the 50% effective concentration (EC50) came to 1190 nM in assay [1] and 10300 nM in assay [2]. Moreover, the Emax in assay [1] (setting [3]) was determined as 101%; in assay [2] (setting [4]), 31%.

For the compound `CN(C)C(=O)c1ccc(N2CCC(C)(CCCN(C)C(=O)[C@](O)(c3ccccc3)C(F)(F)F)CC2)cc1Cl` [Example 9-7, (R)-2-chloro-N,N-dimethyl-4-(4-methyl-4-(3-(3,3,3-trifluoro-2-hydroxy-N-methyl-2-phenylpropanamido)propyl)piper-idin-1-yl)benzamide], the EC50 in assay [1] came to 78 nM; in assay [2] it was 921 nM. The Emax in assay [1] (setting [3]) stood at 42%; in assay [2] (setting [4]) it was 19%.

In the case of `CN(C)C(=O)c1ccc(N2CCC3(CC2)C[C@H]3CCN(C)C(=O)[C@](O)(c2ccccc2)C(F)(F)F)cc1Cl` [Example 7-25, 2-chloro-N,N-dimethyl-4-((S)-1-(2-((R)-3,3,3-trifluoro-2-hydroxy-N-methyl-2-phenylpropanamido)ethyl)-6-azaspiro[2.5]octan-6-yl)benzamide], the EC50 in assay [1] amounted to 473 nM; in assay [2], 3100 nM. Further, the Emax worked out at 46% in assay [1] (setting [3]) and 22% in assay [2] (setting [4]).

Turning to `CN(C)C(=O)c1ccc(N2CCC3(CC2)CC3CCCN(C)C(=O)C(C)(C)c2ccccc2)cc1Cl` (centres unmarked) [Example 7-34, 2-chloro-4-(1-(3-(N,2-dimethyl-2-phenylpropanamido)propyl)-6-azaspiro[2.5]octan-6-yl)-N,N-dimethylbenzamide], in assay [1], the EC50 was found to be 264 nM. The Emax in assay [1] (setting [3]) came to 23%; in assay [2] (setting [4]), 0%. Further, the “LXR alpha IP (nM)” value in assay [2] is reported as “No IP”.

For the compound `CN(C)C(=O)c1ccc(N2CCC([C@H]3C[C@H]3CNC(=O)[C@](O)(c3ccccc3)C(F)(F)F)CC2)nc1Cl` [Example 15-9], the values for the half-maximal effective concentration (EC50) in assay [1] and in assay [2] were 393 nM and 4220 nM, respectively. Also, the Emax in assay [1] (setting [3]) came to 54%; in assay [2] (setting [4]), 39%.

Take `CN(C)C(=O)c1ccc(N2CCC(CCCN(C)C(=O)[C@](O)(c3ccccc3)C(F)(F)F)CC2)nc1Cl` [Example 1-26, (R)-2-chloro-N,N-dimethyl-6-(4-(3-(3,3,3-trifluoro-2-hydroxy-N-methyl-2-phenylpropanamido)propyl)piperidin-1-yl)nicotinamide]: the “LXR beta actiivty at max dose (%)” value in assay [1] (setting [3]) worked out at 51%. Also, the “LXR alpha IP (nM)” value in assay [2] is “No IP”. Moreover, the “LXR alpha actiivty at max dose (%)” value in assay [2] (setting [4]) is 6%.

In assay [1], `COc1cccc([C@@](O)(C(=O)N(C)CC[C@H]2CC23CCN(c2ccc(C(=O)N(C)C4CC4)c(Cl)n2)CC3)C(F)(F)F)c1` [Example 7-18, 2-chloro-N-cyclopropyl-N-methyl-6-((R)-1-(2-((R)-3,3,3-trifluoro-2-hydroxy-2-(3-methoxyphenyl)-N-methylpropanamido)ethyl)-6-azaspiro[2.5]octan-6-yl)nicotinamide] registered a concentration giving a half-maximal response (EC50) of 45 nM. Besides, the results for the Emax in assay [1] (setting [3]) and in assay [2] (setting [4]) were 57% and 16%, respectively. For the same compound, the “LXR alpha IP (nM)” value in assay [2] was “No IP”.

Take `CN(C)C(=O)c1ccc(N2CCC(CCCN(C)C(=O)[C@]3(C(F)(F)F)CCCO3)CC2)nc1Cl` [Example 1-8, (S)-2-chloro-N,N-dimethyl-6-(4-(3-(N-methyl-2-(trifluoromethyl)-tetrahydrofuran-2-carboxamido)propyl)piperidin-1-yl)nicotinamide]: the EC50 was 106 nM in assay [1] and 1770 nM in assay [2]. For the same compound, the Emax in assay [1] (setting [3]) was 81%; in assay [2] (setting [4]) it was 51%.

For the compound `COc1cccc([C@@]2(C(=O)N(C)CCCC3CCN(c4ccc(C(=O)N(C)C)c(Cl)n4)CC3)CCCO2)c1` [Example 1-47, (R)-2-chloro-6-(4-(3-(2-(3-methoxyphenyl)-N-methyltetrahydrofuran-2-carboxamido)propyl)piperidin-1-yl)-N,N-dimethylnicotinamide], a half-maximal effect in assay [1] (EC50) was put at 100 nM. Moreover, the Emax in assay [1] (setting [3]) turned out to be 56%; in assay [2] (setting [4]) it was 11%. For the same compound, the “LXR alpha IP (nM)” value in assay [2] was “No IP”.

Compound `CN(C)C(=O)c1ccc(N2CCC(C[C@@H]3C[C@H]3CN(C)C(=O)[C@](O)(c3ccccc3)C(F)(F)F)CC2)nc1Cl` [Example 18-4, 2-chloro-N,N-dimethyl-6-(4-(((1R,2R)-2-(((R)-3,3,3-trifluoro-2-hydroxy-N-methyl-2-phenylpropanamido)methyl)cyclopropyl)methyl)piperidin-1-yl)nicotinamide] came in with an EC50 in assay [1] of 66 nM. In addition, the figures for the Emax in assay [1] (setting [3]) and in assay [2] (setting [4]) were 57% and 15%, respectively. Further, the “LXR alpha IP (nM)” value in assay [2] was “No IP”.

On to `CN(C)C(=O)c1ccc(N2CCC(CCCN(C)C(=O)[C@]3(c4cccc(Cl)c4)CCCO3)CC2)nc1Cl` [Example 1-62, (R)-2-chloro-6-(4-(3-(2-(3-chlorophenyl)-N-methyltetrahydrofuran-2-carboxamido)propyl)piperidin-1-yl)-N,N-dimethylnicotinamide], for which a half-maximal effect in assay [1] (EC50) was put at 694 nM. Also, the Emax in assay [1] (setting [3]) came to 28%; in assay [2] (setting [4]) it was 0%. The “LXR alpha IP (nM)” value in assay [2] is given as “No IP”.

Turning to `CN(C)C(=O)c1ccc(N2CCC(CCCN(C)C(=O)[C@](O)(c3cccc(O)c3)C(F)(F)F)CC2)nc1Cl` [Example 1-58, (R)-2-chloro-N,N-dimethyl-6-(4-(3-(3,3,3-trifluoro-2-hdyroxy-2-(3-hydroxyphenyl)-N-methylpropanamido)propyl)piperidin-1-yl)nicotinamide], the results for the EC50 in assay [1] and in assay [2] were 37 nM and 2780 nM, respectively. In addition, the Emax came out at 86% in assay [1] (setting [3]) and 37% in assay [2] (setting [4]).

As for `COc1cccc([C@@](O)(C(=O)NC[C@H](F)CC2CCN(c3ccc(C(=O)N(C)C)c(Cl)n3)CC2)C(F)(F)F)c1` [Example 3-7, 2-chloro-6-(4-((R)-2-fluoro-3-((R)-3,3,3-trifluoro-2-hydroxy-2-(3-methoxy-phenyl)propanamido)propyl)piperidin-1-yl)-N,N-dimethylnicotinamide], a half-maximal response in assay [1] (EC50) required 425 nM. The results for the Emax in assay [1] (setting [3]) and in assay [2] (setting [4]) were 94% and 13%, respectively. In addition, in assay [2], the “LXR alpha IP (nM)” value is “No IP”.

Take `CN(C)C(=O)c1ccc(N2CCC(CCCN(C)C(=O)[C@@]3(c4ccccc4Cl)CCCO3)CC2)nc1Cl` [Example 1-64, (S)-2-chloro-6-(4-(3-(2-(2-chlorophenyl)-N-methyltetrahydrofuran-2-carboxamido)propyl)piperidin-1-yl)-N,N-dimethylnicotinamide]: the concentration giving a half-maximal response (EC50) in assay [1] was determined as 285 nM. Further, the Emax was found to be 26% in assay [1] (setting [3]) and 0% in assay [2] (setting [4]). The “LXR alpha IP (nM)” value in assay [2] is “No IP”.

As for `COc1cccc([C@@](O)(C(=O)N(C)CC[C@@H]2CC23CCN(c2ccc(C(=O)NC4CC4)c(Cl)c2)CC3)C(F)(F)F)c1` [Example 7-27, 2-chloro-N-cyclopropyl-4-((S)-1-(2-((R)-3,3,3-trifluoro-2-hydroxy-2-(3-methoxyphenyl)-N-methylpropanamido)ethyl)-6-azaspiro[2.5]octan-6-yl)benzamide], in assay [1], the concentration for a half-maximal effect (EC50) was 1870 nM. The Emax is 32% in assay [1] (setting [3]) and 5% in assay [2] (setting [4]). In addition, the “LXR alpha IP (nM)” value in assay [2] is recorded as “No IP”.

In turn, `CN(C)C(=O)c1ccc(N2CCC(CCCNC(=O)OCc3ccccc3)CC2)nc1Cl` [Example 5-5, benzyl 3-(1-(6-chloro-5-(dimethylcarbamoyl)pyridin-2-yl)piperidin-4-yl)propyl-carbamate] came in with a half-maximal effective concentration (EC50) in assay [1] of 1510 nM. Besides, the Emax in assay [1] (setting [3]) came to 39%; in assay [2] (setting [4]), 0%. Moreover, the “LXR alpha IP (nM)” value in assay [2] is given as “No IP”.

Take `CNC(=O)c1ccc(N2CCC3(CC2)C[C@H]3CCN(C)C(=O)[C@](O)(c2ccccc2)C(F)(F)F)cc1Cl` (single isomer, unassigned) [Example 7-7]: the values for the concentration for a half-maximal effect (EC50) in assay [1] and in assay [2] were 22 nM and 504 nM, respectively. For the same compound, the Emax in assay [1] (setting [3]) worked out at 64%; in assay [2] (setting [4]), 42%.

In assay [1], `COc1cccc([C@@](O)(C(=O)N[C@@H](C)CCC2CCN(c3ccc(C(=O)N(C)C)c(Cl)n3)CC2)C(F)(F)F)c1` [Example 6-1, 2-chloro-N,N-dimethyl-6-(4-((S)-3-((R)-3,3,3-trifluoro-2-hydroxy-2-(3-methoxyphenyl)propanamido)butyl)piperidin-1-yl)nicotinamide] registered a half-maximal effective concentration (EC50) of 379 nM. In addition, the Emax in assay [1] (setting [3]) was found to be 25%; in assay [2] (setting [4]), 0%. The “LXR alpha IP (nM)” value in assay [2] was “No IP”.
